Test results taken from patent US20220354957A1, “PEPTIDES TARGETING MACROPHAGES, AND CONJUGATES, COMPOSITIONS, AND USES THEREOF” (Twinpig Biolab, Inc., priority 2021, published 2022).

System: TGF-β1-induced A549 cells cocultured with IL-4 and IL-13 induced THP-1 macrophages
Assay: In vitro lung fibrosis model, coculture
Format: cell-based, human
Settings: 1.5 μM, cocultured with M2 polarization of THP-1
Procedure: THP-1 cells were purchased from the American Type Culture Collection (ATCC) and cultured according to their specific indications, using an RPMI 1640 medium supplemented with non-heat-treated 10% fetal bovine serum (FBS; WelGENE), 2 mM L-glutamine, 0.05 mM β-mercaptoethanol, 10 mM HEPES, 4500 mg/L glucose, 100 U/ml penicillin and 100 μg/ml streptomycin (Gibco). Human alveolar cell, A549 cells, obtained from the American Type Culture Collection (ATCC), were cultured in RPMI 1640 medium containing 2.05 mM L-glutamine, 2 g/liter sodium bicarbonate and 2 g/liter glucose (WelGENE) together with 10% FBS (WelGENE), 100 U/ml penicillin and 100 μg/m1 streptomycin (Gibco). Cells were cultured at 37° C. in a 5% CO2 humidified incubator to reach 80% of confluence.
THP-1 cells are differentiated into macrophages by 24 h incubation with 100 nM phorbol 12-myristate 13-acetate (PMA, Sigma) followed by 24 h incubation in RPMI medium (Invtrogen). […]
Total RNA was extracted using Easy-Blue reagent. Concentrations of RNA were determined and quantified by measuring absorbance at 260 and 280 nm with a spectrophotometer. […] PCR conditions were forty-five cycles at 95° C. for 5 min, followed by 95° C. for 10 sec, 60° C. for 10 sec and 72° C. for 10 sec. mRNA expression were quantified in triplicate. Data were measured with CFX Software (Bio-Rad). […]

How did the “inhibitory effect on EMT and FMT of epithelial cells” value turn out when CC[C@H](C)[C@H](NC(=O)[C@H](CC(C)C)NC(=O)[C@H](C)NC(=O)[C@@H]1CCCN1C(=O)[C@H](CC(C)C)NC(=O)CNC(=O)[C@@H](NC(=O)[C@@H](NC(=O)[C@H](CC(C)C)NC(=O)[C@@H](NC(C)=O)C(C)C)[C@@H](C)O)[C@@H](C)O)C(=O)N[C@@H](CO)C(=O)N[C@@H](Cc1c[nH]c2ccccc12)C(=O)N[C@H](C(=O)N[C@@H](CCCCN)C(=O)N[C@@H](CCCNC(=N)N)C(=O)N[C@@H](CCCCN)C(=O)N[C@@H](CCCNC(=N)N)C(=O)N[C@@H](CCC(N)=O)C(=O)N[C@@H](CCC(N)=O)C(=O)NCC(=O)NCC(=O)NCC(=O)NCC(=O)N[C@@H](CO)C(=O)N[C@H](CCCCN)C(=O)N[C@H](CC(C)C)C(=O)N[C@H](C)C(=O)N[C@H](CCCCN)C(=O)N[C@H](CC(C)C)C(=O)N[C@H](C)C(=O)N[C@H](CCCCN)C(=O)N[C@H](CCCCN)C(=O)N[C@H](CC(C)C)C(=O)N[C@H](C)C(=O)N[C@H](CCCCN)C(=O)N[C@H](CC(C)C)C(=O)N[C@H](C)C(=O)N[C@H](CCCCN)C(=O)O)[C@@H](C)CC [MpepK] was run?
Its value is “no significant inhibitory effect”.
